How the values were obtained:
[1] = Human pharmacokinetic study, urine (DART TOF-MS); assay type: in vivo
Experimental: (§1) Cranberry extracts 5 and 6 were prepared by HerbalScience Singapore Pte. Ltd. and prepared as 150-mg and 140-mg capsules, respectively. Each pharmacokinetic study (1 per extract) consisted of five healthy consenting adults ranging in age from 25 to 50 were instructed not to consume foods rich in phenolics 24 hours prior to the initiation of the study. A certified individual collected urine samples at several time intervals between 0 and 480 minutes after two capsules of a cranberry extract were ingested immediately after the time zero time point. Blood samples were handled with approved protocols and precautions, centrifuged to remove cells and the serum fraction was collected and frozen. Blood was not treated with heparin to avoid any analytical interference. Serum samples were stored frozen at −20° C. until analysis. The serum was extracted with an equal volume of neat ethanol (USP) to minimize background of proteins, peptides, and polysaccharides present in serum. The ethanol extract was centrifuged at 9300×g for 10 minutes at 4° C., the supernatant was removed, concentrated to 200 μL volume which was then used for DART TOF-MS analyses (FIG. 10). Urine samples were handled with approved protocols and precautions and frozen. Serum samples were stored frozen until analysis. The urine samples were analyzed neat by DART TOF-MS (FIGS. 11 and 12).

[2] = Human pharmacokinetic study, serum (DART TOF-MS); assay type: in vivo; conditions: 5 healthy adults, Extract 5 300 mg oral
Experimental: as §1

| Compound | time of appearance in urine ([1]; human, in vivo, po) [h] | time through which urine levels increased (declined thereafter) ([1]; human, in vivo, po) [h] | presence in urine at 8 hours post-ingestion ([1]; in vivo, po) | time of appearance in urine ([1]; in vivo, po) [h] | time through which urine levels increased (declined thereafter) ([1]; in vivo, po) [h] | also measured |
| --- | --- | --- | --- | --- | --- | --- |
| O=C(O)c1ccc(O)cc1 [4-hydroxybenzoic acid] | ≤ 1 | 2 | still present |  |  |  |
| O=CC=Cc1ccccc1 [cinnamaldehyde] | ≤ 1 | 2 | still present |  |  |  |
| C[C@@H](O)[C@H](N)C(=O)O [L-threonine] | ≤ 1 | 2 |  |  |  |  |
| S-petasine |  |  |  |  |  | time through which urine levels increased (declined thereafter) ([1]; two vegcaps Extract 6 oral): 2 h; time after which undetectable in serum [2]: 180 min; time through which serum levels increased (declined thereafter) [2]: about 40 minutes |
| CC1=CC(=O)CC(C)(C)[C@@]1(O)/C=C/C(C)=C\C(=O)O [abscisic acid] |  |  |  |  |  | abundance in urine relative to other bioactives ([1]; Extract 5 300 mg oral): most abundant; time of peak level in urine ([1]; Extract 5 300 mg oral): 2 h; presence in urine at 8 hours post-ingestion ([1]; two vegcaps Extract 6 oral): still present; time through which urine levels increased (declined thereafter) ([1]; two vegcaps Extract 6 oral): 2 h; time after which undetectable in serum [2]: 180 min; time through which serum levels increased (declined thereafter) [2]: about 40 minutes |

The next lines start with results.

| time of appearance in urine ([1]; human, in vivo, po) [h] | time through which urine levels increased (declined thereafter) ([1]; human, in vivo, po) [h] | presence in urine at 8 hours post-ingestion ([1]; in vivo, po) | time of appearance in urine ([1]; in vivo, po) [h] | time through which urine levels increased (declined thereafter) ([1]; in vivo, po) [h] | Compound | also measured |
| --- | --- | --- | --- | --- | --- | --- |
|  |  |  | ≤ 1 | 2 | NCC(=O)CCC(=O)O [aminolevulenic acid] |  |
|  |  | still present | ≤ 1 | 2 | chitosan |  |
|  |  | still present | ≤ 1 | 2 | c1ccc(-c2cc3ccccc3[nH]2)cc1 [α-phenylindol] |  |
|  |  | still present | ≤ 1 | 2 | COc1ccc(C2COc3cc(O)ccc3C2)c(O)c1 (stereo not shown) [vestitol] |  |
